# From PubChem BioAssay (NCI)
#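 In this assay, cells in 96-well plates receive the compound at five concentrations for 48 hours. Endpoints are linearly interpolated between the surrounding concentrations. Definition used: TGI = concentration required for complete inhibition of growth.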 Where a SMILES comes first, the peptide text is derived from it. [ ]: non-standard residue; d: D form. The star is where a group is joined. hSer = N[CH](CCO)C(=O)O; Boc = CC(C)(C)OC(=O)*
# How the values were obtained:
# Assay in all cases: DTP human tumour cell line panel, 48 h
# MCF7 breast = system: MCF7 breast
# PC-3 prostate = system: PC-3 prostate
# EKVX NSCLC = system: EKVX NSCLC
# HOP-92 NSCLC = system: HOP-92 NSCLC
# SF-539 CNS = system: SF-539 CNS
# CAKI-1 renal = system: CAKI-1 renal
# CCRF-CEM leukemia = system: CCRF-CEM leukemia
# UACC-257 melanoma = system: UACC-257 melanoma
# 786-0 renal = system: 786-0 renal
# M14 melanoma = system: M14 melanoma
# HCT-116 colon = system: HCT-116 colon
# LOX IMVI melanoma = system: LOX IMVI melanoma
# TK-10 renal = system: TK-10 renal
# SR leukemia = system: SR leukemia
# RXF 393 renal = system: RXF 393 renal
# IGROV1 ovarian = system: IGROV1 ovarian
# SNB-75 CNS = system: SNB-75 CNS
# T-47D breast = system: T-47D breast
# NCI-H522 lung = system: NCI-H522 lung
# SNB-19 CNS = system: SNB-19 CNS
Structure (SMILES),TGI (MCF7 breast),TGI (PC-3 prostate),TGI (EKVX NSCLC),TGI (HOP-92 NSCLC),TGI (SF-539 CNS),TGI (CAKI-1 renal),TGI (CCRF-CEM leukemia),TGI (UACC-257 melanoma),TGI (786-0 renal),TGI (M14 melanoma),TGI (HCT-116 colon),TGI (LOX IMVI melanoma),TGI (TK-10 renal),TGI (SR leukemia),TGI (RXF 393 renal),TGI (IGROV1 ovarian),TGI (SNB-75 CNS),TGI (T-47D breast),TGI (NCI-H522 lung),TGI (SNB-19 CNS)
c1cc(-c2cscc2-c2ccsc2)cs1,> 100 µM,> 100 µM,> 100 µM,> 100 µM,59.5 µM,> 100 µM,> 100 µM,> 100 µM,> 100 µM,> 100 µM,> 100 µM,> 100 µM,> 100 µM,> 100 µM,> 100 µM,> 100 µM,> 100 µM,> 100 µM,–,–
COC(=O)c1ccc(CN2CCc3c([nH]c4ccccc34)C2CO)o1 (configuration not stated),> 10 µM,> 10 µM,> 10 µM,> 10 µM,–,> 10 µM,> 10 µM,> 10 µM,> 10 µM,> 10 µM,–,–,> 10 µM,> 10 µM,> 10 µM,> 10 µM,> 10 µM,> 10 µM,> 10 µM,–
CN(NC(=O)c1ccco1)C1=NCCCCN1,> 100 µM,> 100 µM,> 100 µM,> 100 µM,> 100 µM,–,> 100 µM,> 100 µM,> 100 µM,> 100 µM,> 100 µM,> 100 µM,> 100 µM,> 100 µM,> 100 µM,> 100 µM,> 100 µM,> 100 µM,> 100 µM,> 100 µM
COCCC(NC(=O)C(CC(C)C)NC(=O)OC(C)(C)C)C(N)=O (stereo not drawn) (Boc-Leu-[hSer](Me)-NH2; configuration not given here),> 100 µM,> 100 µM,> 100 µM,> 100 µM,> 100 µM,> 100 µM,> 100 µM,> 100 µM,> 100 µM,> 100 µM,> 100 µM,> 100 µM,> 100 µM,> 100 µM,> 100 µM,> 100 µM,> 100 µM,> 100 µM,> 100 µM,> 100 µM
COC(=O)C1Cc2c(C)cccc2C1=O (configuration not stated),> 100 µM,> 100 µM,> 100 µM,> 100 µM,> 100 µM,> 100 µM,> 100 µM,> 100 µM,> 100 µM,> 100 µM,> 100 µM,> 100 µM,> 100 µM,> 100 µM,> 100 µM,> 100 µM,> 100 µM,> 100 µM,> 100 µM,> 100 µM
CCOC(=O)C1(Cc2ccc(C)cc2)Cc2ccc(C)cc2C1=O (configuration not stated),28.3 µM,> 100 µM,> 100 µM,> 100 µM,58.5 µM,> 100 µM,64.1 µM,98.2 µM,> 100 µM,47.3 µM,> 60.2 µM,> 65 µM,> 100 µM,68.8 µM,29.5 µM,> 100 µM,> 100 µM,> 74.6 µM,36.9 µM,> 100 µM
CC(=O)N[C@@H](Cc1ccc(O)cn1)C(=O)NCc1cccc(F)c1,> 100 µM,> 100 µM,> 100 µM,> 100 µM,> 100 µM,> 100 µM,> 100 µM,> 100 µM,> 100 µM,> 100 µM,> 100 µM,> 100 µM,> 100 µM,> 100 µM,> 100 µM,> 100 µM,–,> 100 µM,> 100 µM,> 100 µM
C[N+]1(C)CC=C(N2CCOCC2)CC1,> 10 µM,> 10 µM,> 10 µM,–,> 10 µM,> 10 µM,> 10 µM,> 10 µM,> 10 µM,> 10 µM,> 10 µM,> 10 µM,> 10 µM,> 10 µM,> 10 µM,> 10 µM,> 10 µM,> 10 µM,> 10 µM,> 10 µM
COc1ccc2nc3ccc(OC)cc3c(S(=O)Cc3ccc([N+](=O)[O-])cc3)c2c1 (configuration not stated),4.26 µM,27.6 µM,32.5 µM,> 23.5 µM,7.25 µM,28.6 µM,> 21.9 µM,11.4 µM,4.26 µM,30.6 µM,3.12 µM,34.7 µM,10.4 µM,> 33.6 µM,28.6 µM,11.1 µM,35.9 µM,4.34 µM,3.37 µM,52.3 µM
CCC1(O)C=CC(=O)C=C1,> 100 µM,> 62.2 µM,> 100 µM,75.9 µM,50.6 µM,> 100 µM,> 100 µM,> 52.5 µM,39.2 µM,40.4 µM,> 100 µM,32.4 µM,45.6 µM,> 100 µM,38.2 µM,40.6 µM,> 96.1 µM,67.7 µM,24.7 µM,39.2 µM
COc1ccc(CN2C(=O)CCC/C=C\[C@H]2CI)cc1,22.5 µM,20.7 µM,22.5 µM,25.3 µM,26.4 µM,21.9 µM,–,21.7 µM,27 µM,22.6 µM,24 µM,34 µM,25 µM,> 100 µM,17.2 µM,29 µM,17.5 µM,6.69 µM,26.5 µM,25.9 µM
O=C(CCSC(CC(=O)c1ccc(Cl)cc1)c1ccc(Cl)cc1)Nc1ccc(Cl)cc1 (configuration not stated),15.3 µM,27.1 µM,25.4 µM,32.9 µM,32.6 µM,57.2 µM,5.55 µM,29.6 µM,27.6 µM,28.2 µM,18.5 µM,18.3 µM,29.9 µM,9.57 µM,28.2 µM,29.6 µM,36.4 µM,22.2 µM,40.2 µM,26.6 µM
CCCCCCCCCCCCNC(=O)NCC(OCC)OCC,> 10 µM,> 10 µM,> 10 µM,> 10 µM,> 10 µM,> 10 µM,> 10 µM,> 10 µM,> 10 µM,> 10 µM,> 10 µM,> 10 µM,> 10 µM,> 10 µM,> 10 µM,> 10 µM,> 10 µM,> 10 µM,> 10 µM,> 10 µM
O=C1Nc2ccccc2C(=O)OC(Cc2ccccc2)=Nc2ccccc21,> 100 µM,> 100 µM,> 100 µM,–,> 100 µM,> 100 µM,> 100 µM,> 100 µM,> 100 µM,> 100 µM,> 100 µM,> 100 µM,> 100 µM,> 100 µM,> 100 µM,> 100 µM,> 100 µM,> 100 µM,> 100 µM,> 100 µM
Nc1c(Br)cc(-c2cc(Br)c(N)c(Br)c2)cc1Br,> 100 µM,> 100 µM,> 100 µM,> 100 µM,> 100 µM,> 100 µM,> 100 µM,> 100 µM,> 100 µM,> 100 µM,> 100 µM,> 100 µM,> 100 µM,> 100 µM,> 100 µM,> 100 µM,> 100 µM,> 100 µM,> 100 µM,> 100 µM
CCOC(=O)C1NCCc2c1[nH]c1ccccc21 (configuration not stated),> 10 µM,> 10 µM,> 10 µM,> 10 µM,–,> 10 µM,> 10 µM,> 10 µM,> 10 µM,> 10 µM,–,–,> 10 µM,> 10 µM,> 10 µM,> 10 µM,> 10 µM,> 10 µM,> 10 µM,–
CCOn1cc(C[C@@]2(O)C(=O)OC3[C@@H](O)CO[C@@]32O)c2ccccc21 (some centres not stated),> 100 µM,> 100 µM,> 100 µM,> 100 µM,> 100 µM,> 100 µM,> 100 µM,> 100 µM,> 100 µM,> 100 µM,> 100 µM,> 100 µM,> 100 µM,> 100 µM,> 100 µM,> 100 µM,> 100 µM,> 100 µM,> 100 µM,> 100 µM
C1=C2SSC3=CC=C(SSc4ccc(s4)SSC4=CC=C(SSC(=C1)S2)S4)S3,> 100 µM,> 100 µM,> 100 µM,> 100 µM,–,> 100 µM,> 100 µM,> 100 µM,> 100 µM,> 100 µM,> 100 µM,> 100 µM,> 100 µM,> 100 µM,> 100 µM,> 100 µM,> 100 µM,> 100 µM,> 100 µM,> 100 µM
CCOC(=O)NNC(=O)NCCNC(=O)NNC(=O)OCC,> 100 µM,> 100 µM,> 100 µM,–,> 100 µM,> 100 µM,> 100 µM,> 100 µM,> 100 µM,> 100 µM,> 100 µM,> 100 µM,> 100 µM,> 100 µM,> 100 µM,–,> 100 µM,> 100 µM,> 100 µM,> 100 µM
CSc1n[nH]c(N)c1C(=O)Nc1ccc(Cl)cc1,> 100 µM,> 100 µM,> 100 µM,–,> 100 µM,> 100 µM,> 100 µM,> 100 µM,> 100 µM,> 100 µM,56 µM,> 100 µM,> 100 µM,> 100 µM,60.7 µM,> 100 µM,> 100 µM,> 100 µM,> 100 µM,> 100 µM
CCOC(=O)c1cc2cc(Cc3ccc4[nH]c(C(=O)OCC)cc4c3)ccc2[nH]1,> 100 µM,> 100 µM,78.9 µM,27.8 µM,36.3 µM,34.3 µM,> 100 µM,> 100 µM,13 µM,> 100 µM,> 100 µM,> 100 µM,31.4 µM,> 100 µM,29.4 µM,35.7 µM,27.9 µM,> 100 µM,–,30.6 µM
CCOC(=O)CC(C)C(C#N)(OP1(=O)OC(c2ccccc2)C(C)N1C)c1ccccc1 (configuration not stated),> 100 µM,> 100 µM,> 100 µM,> 100 µM,> 100 µM,> 100 µM,> 100 µM,> 100 µM,> 100 µM,> 100 µM,> 100 µM,> 100 µM,> 100 µM,> 100 µM,> 100 µM,> 100 µM,–,> 100 µM,> 100 µM,> 100 µM
O=C1N[C@H]2c3c(Cl)sc(Cl)c3C(=O)[C@H]2O1,> 100 µM,> 62.5 µM,27.9 µM,41.6 µM,39.9 µM,49.5 µM,> 21.2 µM,36.2 µM,> 54.2 µM,52.6 µM,> 35.6 µM,13.9 µM,> 100 µM,5.81 µM,> 79.8 µM,14.4 µM,34.9 µM,> 64.8 µM,3.43 µM,46.5 µM
CC1C(c2ccc(N(C)C)cc2)c2cc3c(cc2OC1N1CCCC1)OCO3 (configuration not stated),> 31.6 µM,> 100 µM,> 100 µM,> 100 µM,60.2 µM,> 100 µM,> 100 µM,> 100 µM,> 100 µM,> 100 µM,> 100 µM,> 100 µM,> 100 µM,> 100 µM,> 100 µM,> 100 µM,> 73 µM,> 100 µM,> 82 µM,> 100 µM
O=S(=O)(O)c1cc(Cl)c(O)c2ncc(Cl)cc12,> 100 µM,> 100 µM,> 100 µM,> 100 µM,> 100 µM,> 100 µM,> 100 µM,> 100 µM,> 100 µM,> 100 µM,> 100 µM,> 100 µM,–,> 100 µM,> 100 µM,> 100 µM,> 100 µM,> 100 µM,–,> 100 µM
